Measured values reported in PubChem BioAssay (NCI).
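Cells were grown in 96-well plates and exposed to each compound for 48 hours at five concentrations; endpoints were interpolated linearly between bracketing concentrations, or set to the highest concentration if not reached. At the TGI there is no net growth.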

What was measured:
Experiment in all cases: growth of human tumour cells (NCI), 48 h
KM12 colon = tested on: KM12 colon
IGROV1 ovarian = tested on: IGROV1 ovarian
K-562 leukemia = tested on: K-562 leukemia
UO-31 renal = tested on: UO-31 renal
HCT-15 colon = tested on: HCT-15 colon
MOLT-4 leukemia = tested on: MOLT-4 leukemia
OVCAR-4 ovarian = tested on: OVCAR-4 ovarian
MALME-3M melanoma = tested on: MALME-3M melanoma
SF-295 CNS = tested on: SF-295 CNS
COLO 205 colon = tested on: COLO 205 colon

Row | Compound | TGI (KM12 colon) | TGI (IGROV1 ovarian) | TGI (K-562 leukemia) | TGI (UO-31 renal) | TGI (HCT-15 colon) | TGI (MOLT-4 leukemia) | TGI (OVCAR-4 ovarian) | TGI (MALME-3M melanoma) | TGI (SF-295 CNS) | TGI (COLO 205 colon)
1 | O=C1CCCC2=C1CC1=C(CCCC1=O)N2c1ccccc1 | > 100 µM | > 100 µM | > 100 µM | > 100 µM | > 100 µM | > 100 µM | > 100 µM | – | – | –
2 | COC(=O)c1ccccc1C1CN=NC12Cc1cccc(C)c1C2=O (stereo not drawn) | > 100 µM | > 100 µM | > 100 µM | 83.9 µM | > 100 µM | > 100 µM | > 100 µM | > 100 µM | > 100 µM | –
3 | c1ccc(N=C2SC3=NCCN3C2=Nc2ccccc2)cc1 | 29.7 µM | – | > 100 µM | 26.4 µM | 61.4 µM | 77 µM | – | – | 41.7 µM | 33.3 µM
4 | CC(Cc1ccccc1)NC1=NCCO1 (stereo not drawn) | – | > 100 µM | – | 50.4 µM | > 100 µM | 77.9 µM | > 100 µM | – | > 100 µM | 34.5 µM
5 | CC(NC(C#N)CC12CC3CC(CC(C3)C1)C2)c1ccccc1 (stereo not drawn) | – | > 100 µM | > 100 µM | > 100 µM | > 100 µM | > 100 µM | – | > 100 µM | > 100 µM | > 100 µM
6 | CSCCC(NC(=O)OCc1ccccc1)NC(=O)OCc1ccccc1 | – | > 100 µM | > 100 µM | > 100 µM | > 100 µM | > 100 µM | > 100 µM | – | > 100 µM | > 100 µM
7 | O=C1c2ccccc2-c2nc(/C=C/c3ccccc3)cc3c2c1nc1ccccc13 | 68.4 µM | > 100 µM | 32.2 µM | > 100 µM | 40.8 µM | > 100 µM | > 100 µM | – | > 100 µM | 69.8 µM
8 | CCc1nc2ccc(C(F)(F)F)cc2[nH]c1=O | > 100 µM | – | > 100 µM | > 100 µM | > 100 µM | > 100 µM | > 100 µM | > 100 µM | > 100 µM | > 100 µM
9 | CCN(CC)CCCOc1cc2c(cc1OC)C(=O)N1CCC[C@H]1C=N2 | 48.4 µM | – | > 100 µM | > 100 µM | > 100 µM | 50.2 µM | > 100 µM | > 100 µM | 75.5 µM | 38.6 µM
10 | NS(=O)(=O)c1nnc(NS(=O)(=O)c2ccccc2C(=O)O)s1 | > 100 µM | – | > 100 µM | > 100 µM | > 100 µM | > 100 µM | > 100 µM | > 100 µM | > 100 µM | > 100 µM
11 | CC1(CC2=C(C(=O)NCCO[Si](C)(C)C(C)(C)C)C3(OCCO3)C2=O)OCCO1 | > 100 µM | > 100 µM | – | > 100 µM | > 100 µM | > 100 µM | > 100 µM | 72.7 µM | > 100 µM | > 100 µM
12 | Cn1c(=O)c2c(nc(Nc3ccc(Cl)cc3)n3c(=O)n(-c4ccccc4)c(=O)n23)n(C)c1=O | > 100 µM | > 100 µM | > 100 µM | > 100 µM | > 100 µM | > 100 µM | > 100 µM | – | > 100 µM | > 100 µM
13 | Cc1nc2ccccc2n1Cc1nnc(N)o1 | > 100 µM | > 100 µM | > 100 µM | > 100 µM | > 100 µM | > 100 µM | – | > 100 µM | > 100 µM | > 100 µM
14 | NC(=O)c1nnsc1NC=O | > 100 µM | > 100 µM | > 100 µM | > 100 µM | > 100 µM | > 100 µM | – | > 100 µM | > 100 µM | > 100 µM
15 | O=C(OCc1ccccc1)N1CCN(C(=O)OCc2ccccc2)CCN(C(=O)OCc2ccccc2)CCN(C(=O)OCc2ccccc2)CCN(C(=O)OCc2ccccc2)CC1 | > 100 µM | – | – | > 100 µM | > 100 µM | > 100 µM | > 100 µM | 61.2 µM | > 100 µM | > 100 µM
16 | c1ccc2c(c1)CC1COc3ccccc3C1O2 (stereo not drawn) | > 100 µM | > 100 µM | > 100 µM | > 100 µM | > 100 µM | > 100 µM | – | > 100 µM | > 100 µM | > 100 µM
17 | c1ccc(-c2cc(-c3cccs3)c(-c3cccs3)o2)cc1 | > 100 µM | > 100 µM | > 100 µM | > 100 µM | > 100 µM | > 100 µM | > 100 µM | – | > 100 µM | > 100 µM
18 | CC(=O)OCC1=C(C)C[C@H]([C@@H](COC(C)=O)C2CCC3C4C[C@H]5O[C@]56CC=CC(=O)[C@]6(C)C4CC[C@@]32C)OC1=O (stereo partly drawn) | 0.593 µM | 0.849 µM | – | 2.96 µM | 0.296 µM | 0.233 µM | 9.9 µM | 0.963 µM | 5.59 µM | 1 µM
